Measurements published in US11707456B2, “Processes for preparing arimoclomol citrate and intermediates thereof” (KemPharm Denmark A/S, priority 2020, dated 2023).

How the values were obtained:
[1] = set-up: species or system human; conditions: in vivo, po
Text: The stability permits that the permeability of arimoclomol is high based on urinary recovery in human mass balance trial.

[2] = Stability of ORZY-04 on drying at 45° C. in vacuum; assay type: physicochemical; conditions: after 168 h of drying at 45° C. in vacuum
Protocol: A citric acid solution was prepared by charging citric acid (15.01 g, […]) and MeOH (100 mL) in a separate container and stirring for 5 min. at 20° C. The citric acid solution was then charged to the container containing the reaction solution, and the mixture was cooled to 0° C. and stirred for at least 12 h at 0° C. ORZY-04 was then isolated by filtration of the obtained suspension, and washed with MeOH (40 mL). Finally, the solids were dried at 45° C. in vacuum. Results

| Compound | drug-related material recovered in faeces [1] | stability on drying [2] |
| --- | --- | --- |
| [O-][n+]1cccc(C(Cl)=NOC[C@H](O)CN2CCCCC2)c1 [arimoclomol, N-{[(2R)-2-hydroxy-3-piperidin-1-ylpropyl]oxy}pyridine-3-carboximidoyl chloride 1-oxide] | 12% | – |
| [O-][n+]1cccc(/C(Cl)=N/OC[C@H](O)CN2CCCCC2)c1 [ORZY-04] | – | stable |
